Assay results from publication PMC5983452 (PLoS ONE, 2018).
Values joined by “and” are separate entries in the source; they are usually repeats but may differ in a detail not shown here. Identical values can stand only once. Counter-ions that a name gives are not always drawn. Blank lines part the entries; values can stand above or below the compound they belong to.

Legend:
[1] = in vitro; format: in vitro ADME, beagle dogs; conditions: male, beagle, dog, microsomes, pH 7.4
[2] = in vitro; format: in vitro ADME, humans
[3] = Hepatocyte stability, mouse; format: in vitro ADME, CD-1 mice; conditions: male, CD-1, mouse, cryopreserved hepatocytes, read-out: CLint measured with hepatocytes, Mouse
[4] = Hepatocyte stability, dog; format: in vitro ADME, beagle dogs; conditions: male, beagle, cryopreserved hepatocytes, read-out: CLint measured with hepatocytes, Dog
[5] = Hepatocyte stability, human; format: in vitro ADME, humans; conditions: for hepatocyte CLint at 1 µM: both sexes, human, cryopreserved hepatocytes, read-out: CLint measured with hepatocytes, Human
[6] = in vitro; conditions: human
Method: Caco-2 permeability. Caco-2 cells (obtained from the ATCC), between passage numbers 40 to 60, were seeded onto Millipore
Multiscreen plates at 1x10^5 cells/cm2 in Dulbecco's Modified Eagle Medium. Media was changed every two or three days. On
Day 20, the permeability study was performed using Hanks Balanced Salt Solution (HBSS) pH 7.4 buffer with 25 mM HEPES and
Incubations were carried out in an atmosphere of 5% CO2 with a relative humidity of
The monolayers were prepared by rinsing both basolateral and apical surfaces twice with HBSS at 37°C. Cells were
then incubated with HBSS in both apical and basolateral compartments for 40 min to stabilize physiological parameters. HBSS
was then removed from the apical or basolateral compartment and replaced with 10 µM test compound dosing solutions (1% final
DMSO). The pH of supplemented HBSS was 6.5 and 7.5 in the apical and basolateral compartments, respectively. The apical
compartment inserts were then placed into ‘companion’ plates containing fresh HBSS.
removed and apical and basolateral samples diluted for analysis by LC-MS/MS. Permeability was assessed in duplicate, on two
different occasions. On each plate atenolol and propanolol were run as controls. Compounds were quantified by LC-MS/MS analysis using a 5 point calibration curve. The starting concentration (C0) was determined from the dosing solution and
experimental recovery calculated from C0 and both apical and basolateral compartment concentrations. The permeability coefficient
(Papp) for each compound was calculated as: (dQ/dt)/(C0xA), where dQ/dt is the rate of permeation of the drug across the cells, C0
is the donor compartment concentration at time zero and A is the area of the cell monolayer.
Plasma protein binding. Plasma protein binding was assessed by equilibrium dialysis utilizing the HT-dialysis cell format with a
cellulose semi-permeable membrane (molecular weight cut-off of 5000 Da). Solutions of test compounds (1 µM, 0.5% final
DMSO concentration) were prepared in isotonic phosphate buffer (pH 7.4) and 100% pooled male CD-1 mouse plasma. The
buffer solution was added to one side of the membrane and the plasma solution to the other side. Incubations were performed in
Haloperidol was incubated in parallel as the control compound for each species. At the end of the incubation time, samples were taken from both sides of the membrane.
Following protein precipitation, the samples were analyzed by LC-MS/MS using two sets of calibration standards for protein free
(7 points) and protein containing solutions (6 points). Samples were quantified using standard curves prepared in the equivalent
matrix. The fraction unbound in plasma (fu) was calculated using the following equation:
Where, PC = sample concentration in protein containing side, PF = sample concentration in protein free side, and VCorrection =
correction factor for the volume shift i.e. ratio of the volume of the protein after dialysis to that before dialysis.

[7] = Mouse pharmacokinetic study; conditions: male, CD-1, mouse; for half-life / Vd / clearance / Tmax / bioavailability: plasma
Method: Mouse, rat, dog and monkey pharmacokinetic studies. The studies were performed in accordance with the AAALAC International
administered intravenousely (1 mg/kg in saline, tail vein injection, 2 mL/kg) and orally (5 mg/kg in 0.5%
MC/0.1% Tween 80, oral gavage, 10 mL/kg). Animals were weighed prior to dose administration and had free
access to water and food. At pre-specified time intervals up to 24 hours post-dose, blood samples (approximately
30 μL) were collected from saphenous vein into polypropylene micro centrifuge tubes (containing 2 μL of 1000
IU/ml Heparin-Na as anticoagulant) and stored on wet ice until processed to plasma by centrifugation (2000 rpm
for 5 min at 4C) within 30 min of collection. In the same study, urine was collected for 24 hours. For
intravenousely (2 mg/kg in ethanol:saline (10:90) solution, tail vein injection, 2 mL/kg) and orally (100 mg/kg in
ethanol:saline (20:80) solution, oral gavage, 10 mL/kg). Animals were weighed prior to dose administration and

[8] = molecular target: T1, SMYD2 (Homo sapiens, UniProt Q9NRG4); assay: SMYD2 biochemical methylation assay (3H-SAM, H3,1–29 peptide, flashplate); design: Full length FLAG-SMYD2 and C-terminally Avi-tagged full length SMYD2 (SMYD2-Avi) were cloned into pFastbac vectors; FLAG (N); His tag with TEV cleavage site (N, cleaved yes); made in house; host or cells: Sf9 insect cells (baculovirus)
T1 sequence (Q9NRG4 whole entry): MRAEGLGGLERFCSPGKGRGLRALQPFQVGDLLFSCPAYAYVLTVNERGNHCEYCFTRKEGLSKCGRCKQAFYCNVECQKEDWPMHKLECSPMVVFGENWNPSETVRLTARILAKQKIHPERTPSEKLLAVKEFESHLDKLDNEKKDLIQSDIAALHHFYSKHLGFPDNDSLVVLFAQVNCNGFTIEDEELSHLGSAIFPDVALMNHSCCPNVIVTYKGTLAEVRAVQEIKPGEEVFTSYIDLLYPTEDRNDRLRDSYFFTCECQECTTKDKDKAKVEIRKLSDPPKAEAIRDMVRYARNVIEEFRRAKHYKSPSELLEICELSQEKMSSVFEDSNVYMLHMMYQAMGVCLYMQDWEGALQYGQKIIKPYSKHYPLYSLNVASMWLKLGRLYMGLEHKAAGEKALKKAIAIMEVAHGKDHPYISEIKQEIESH
Method: Full length FLAG-SMYD2 and C-terminally Avi-tagged full length SMYD2 (SMYD2-Avi) were cloned into pFastbac vectors containing an N-terminal His tag with TEV cleavage site. Virus production was performed using standard protocols and the proteins were coexpressed in either Sf9 (SMYD2) or Hi Five (SMYD2-Avi) cells. After harvest by centrifugation, cell pellets for both proteins were resuspended, sonicated, and then centrifuged to remove cell debris. Protein was purified using nickel affinity chromatography before and after TEV cleavage in a similar fashion as SMYD3. […] SMYD2-Avi was biotinylated using His-tagged BirA enzyme after dialysis into a low salt buffer and the BirA was removed with a final nickel affinity column. […] SMYD3 assays were performed as previously described using N-terminally GST-tagged MAP3K2 protein substrate. […] Reactions were conducted at room temperature with enzyme and inhibitor incubated for 30 minutes before initiating the reaction with substrates. Dose-response curves were tested in duplicate in each experiment. […] Quenched reactions were transferred to a streptavidin-coated flashplate (Perkin Elmer) for capture of the biotinylated peptide. After 2 h incubation at room temperature, the flashplate was washed once with 0.1% Tween-20 and read on a Perkin Elmer Topcount NXT plate reader. Substrate apparent KM values were determined by measuring the initial velocities (v0) in duplicate while varying one substrate at fixed concentration of the second substrate. […] Percent inhibition by compound (% inh) was calculated from Eq 3 %inh=(1-([…] the signal in the presence of compound and max and min are the signals for the DMSO and background controls respectively. […] Mechanism of inhibition was determined by measuring the inhibitor IC50 values while varying the concentration of one substrate at a fixed concentration of the second substrate equal to its KM value. The inhibition constant Ki was calculated from fitting the IC50 versus varied substrate concentration data using the Cheng-Prusoff equations for mixed-type and noncompetitive inhibition below. α is the coefficient accounting for differences in inhibitor affinity between binding enzyme forms after versus before substrate binding.

[9] = molecular target: T1, SMYD2; assay: Intracellular BTF3 monomethylation (BTF3me1) western blot; format: cell-based; design: endogenous in cells; host or cells: 313 cancer cell lines; conditions: read-out: Intracellular Methylation IC50
Method: Cells were lysed in 1X RIPA Buffer containing 10% SDS and Halt™ Protease Inhibitor Cocktail (Thermo Fisher Scientific) and incubated on ice for 30 minutes before sonication (Amplitude 20%/10sec) twice. Lysates were spun at […] at 4°C for 10min and normalized for protein concentration by BCA assay (Thermo Fisher Scientific). […] Blots were imaged using the Odyssey Imaging System (LICOR Biosciences). […] BTF3me1 is a custom generated polyclonal antibody, affinity purified from serum of rabbits injected with adjuvant conjugated peptide corresponding to methylated K1 of BTF3 (K(Me)-[…]).
SMYD2 catalyzes the methylation of lysine residues on several proteins, including BTF3 [40].

[10] = molecular target: T2, SMYD3 (Homo sapiens, UniProt Q9H7B4); assay: SMYD3 biochemical methylation assay (3H-SAM, GST-MAP3K2/MEKK2 substrate); design: Protein purification of both isoforms of full length SMYD3 was performed as previously reported; made in house; conditions: tested in duplicate; read-out: selectivity panel result, SMYD3 (off-target)
T2 sequence (Q9H7B4 1-428): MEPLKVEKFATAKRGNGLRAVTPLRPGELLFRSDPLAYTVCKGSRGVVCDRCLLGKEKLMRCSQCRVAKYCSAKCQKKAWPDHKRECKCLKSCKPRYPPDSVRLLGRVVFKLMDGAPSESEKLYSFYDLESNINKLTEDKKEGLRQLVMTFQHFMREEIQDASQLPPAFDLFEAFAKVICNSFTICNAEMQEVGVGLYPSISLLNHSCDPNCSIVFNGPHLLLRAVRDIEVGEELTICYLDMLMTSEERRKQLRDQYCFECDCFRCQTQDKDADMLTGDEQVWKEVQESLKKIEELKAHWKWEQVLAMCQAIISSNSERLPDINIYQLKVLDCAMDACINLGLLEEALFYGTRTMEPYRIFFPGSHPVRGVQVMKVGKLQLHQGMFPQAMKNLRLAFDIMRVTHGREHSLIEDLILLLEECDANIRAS
Method: SMYD3 assays were performed as previously described using N-terminally GST-tagged MAP3K2 protein substrate. […] Reactions were conducted at room temperature with enzyme and inhibitor incubated for 30 minutes before initiating the reaction with substrates. Dose-response curves were tested in duplicate in each experiment. […] Quenched reactions were transferred to a streptavidin-coated flashplate (Perkin Elmer) for capture of the biotinylated peptide. After 2 h incubation at room temperature, the flashplate was washed once with 0.1% Tween-20 and read on a Perkin Elmer Topcount NXT plate reader. Substrate apparent KM values were determined by measuring the initial velocities (v0) in duplicate while varying one substrate at fixed concentration of the second substrate.
Mechanism of inhibition was determined by measuring the inhibitor IC50 values while varying the concentration of one substrate at a fixed concentration of the second substrate equal to its KM value.

SMILES: NC1CCC(S(=O)(=O)N2C3CCC2CC(NC(=O)c2cc(C4CC4)on2)C3)CC1 [EPZ028862, N-((1R,3R,5S)-8-((1r,4R)-4-aminocyclohexylsulfonyl)-8-aza-bicyclo[3.2.1]octan-3-yl)-5-cyclopropylisoxazole-3-carboxamide hydrochloride]
microsomal CLint at 1 µM [1]: < 3 µL/min/mg
microsomal CLint at 1 µM ([2]; both sexes, human, microsomes, pH 7.4, CLint measured with liver microsomes): < 3 µL/min/mg
CLint measured with liver microsomes, Human ([2]; both, 1 µM, pH 7.4): 3.3 µL/min/mg microsomal protein
hepatocyte CLint at 1 µM [3]: 6.6 µL/min/1e6 cells
hepatocyte CLint at 1 µM [4]: < 3 µL/min/1e6 cells
CLint measured with hepatocytes, Human ([5]; 1 µM): 3.7 µL/min/106 cells and < 3 µL/min/106 cells
hepatocyte CLint at 1 µM [5]: 4.8 µL/min/1e6 cells
Papp A→B at 120 min, 10 µM ([6]; Caco-2, Papp,AB): 0.46 ×10⁻⁶ cm/s
Papp B→A at 120 min, 10 µM ([6]; Caco-2, Papp,BA): 16.4 ×10⁻⁶ cm/s
half-life [7]: 2 h
Vd ([7]; iv, 1 mg/kg): 9.5 L/kg
clearance ([7]; iv, 1 mg/kg): 79.8 mL/min/kg
Tmax ([7]; po, 5 mg/kg): 0.33 h
bioavailability ([7]; po, 5 mg/kg): ~100%
CL renal ([7]; urine and plasma, iv, 1 mg/kg): 23.6 mL/min/kg
IC50 ([8]; tested in duplicate, read-out: selectivity panel result, SMYD2 (off-target)): > 10000 nM

hepatocyte CLint at 1 µM [3]: 10.9 µL/min/1e6 cells
hepatocyte CLint at 1 µM [5]: 6 µL/min/1e6 cells
half-life [7]: 3.2 ± 1 h
Vd ([7]; iv, 2 mg/kg): 4.5 ± 1 L/kg
clearance ([7]; iv, 2 mg/kg): 37.4 ± 6.7 mL/min/kg
bioavailability ([7]; oral, 10 mg/kg): 241 ± 20%
Tmax ([7]; po, 10 mg/kg): 1.7 ± 0.6 h
IC50 [9]: 2.9 nM
IC50 [10]: > 10000 nM
mechanism of inhibition with respect to peptide substrate ([8]; 1 nM enzyme, 20 nM SAM, varied H3,1–29): noncompetitive
IC50 ([8]; IC50 at 20 nM SAM, 1 nM SMYD2, 60 nM H3,1-29, 20 nM SAM): 2.8 ± 0.4 nM
IC50 ([8]; IC50 at 200 nM SAM, 1 nM SMYD2, 60 nM H3,1-29, 200 nM SAM): 3.2 ± 0.5 nM
mechanism of inhibition with respect to SAM ([8]; IC50 compared at two SAM concentrations differing by 10-fold): either noncompetitive or uncompetitive
IC50 ([8]; SMYD2, 20 nM SAM, 60 nM H3,1–29 peptide, read-out: Biochemical IC50): 3.9 nM
Ki ([8]; varied H3,1–29 peptide, Eq 6, read-out: Ki (noncompetitive versus peptide)): 3.9 ± 0.4 nM
SMILES: O=C(NC1CN(Cc2cnn(Cc3ccc(Cl)cc3)c2)C1)c1cn(C2CC2)nn1 [EPZ033294]
